Experimental data taken from ChEMBL document CHEMBL1126366, “Design & synthesis of a novel EPSP synthase inhibitor based on its ternary complex with shikimate-3-phosphate and glyphosate” (Bioorg Med Chem Lett, 1992).

What was measured:
[1] = target: T1, 3-phosphoshikimate 1-carboxyvinyltransferase (Escherichia coli K-12, UniProt P0A6D3); assay: Inhibition of EPSP synthase PEP-Pi site by the compound was expressed as apparent value
T1 sequence (P0A6D3 whole entry): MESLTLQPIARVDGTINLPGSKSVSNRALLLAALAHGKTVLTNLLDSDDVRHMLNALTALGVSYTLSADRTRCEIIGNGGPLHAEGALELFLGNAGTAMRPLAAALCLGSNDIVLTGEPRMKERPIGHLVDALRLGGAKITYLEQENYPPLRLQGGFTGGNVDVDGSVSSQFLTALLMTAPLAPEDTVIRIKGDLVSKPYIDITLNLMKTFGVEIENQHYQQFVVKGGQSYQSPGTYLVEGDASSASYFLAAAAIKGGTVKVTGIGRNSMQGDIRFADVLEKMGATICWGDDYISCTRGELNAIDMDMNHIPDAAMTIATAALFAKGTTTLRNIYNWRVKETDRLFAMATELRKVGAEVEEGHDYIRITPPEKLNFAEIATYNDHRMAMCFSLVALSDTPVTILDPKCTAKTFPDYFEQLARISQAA

[2] = target: T1, 3-phosphoshikimate 1-carboxyvinyltransferase; assay: Potency against EPSP synthase
[3] = target: T1, 3-phosphoshikimate 1-carboxyvinyltransferase; assay: Dissociation constant against EPSP synthase
[4] = target: T1, 3-phosphoshikimate 1-carboxyvinyltransferase; assay: Inhibition of the EPSP synthase PEP-Pi site by the compound expressed as apparent value
[5] = target: T1, 3-phosphoshikimate 1-carboxyvinyltransferase; assay: Inhibition of the EPSP synthase by the compound expressed as weak apparent value
[6] = target: T1, 3-phosphoshikimate 1-carboxyvinyltransferase; assay: Dissociation constant of the at EPSP synthase was determined

Question: Which results are given for `C[C@@](O[C@@H]1CC(C(=O)O)=C[C@@H](OP(=O)(O)O)[C@H]1O)(C(=O)O)P(=O)(O)O`?
Answer: Ki [1]: 0.00011 µM; Ki [2]: 0.015 µM; Kd [3]: 0.015 µM

Question: Which Ki [2] does the source give for `N[C@@H]1CC(C(=O)O)=C[C@@H](OP(=O)(O)O)[C@H]1O` here?
Answer: 85 µM

Question: For `O=C(O)CN(CP(=O)(O)O)[C@@H]1CC(C(=O)O)=C[C@@H](OP(=O)(O)O)[C@H]1O`, which Ki [4] is on record?
Answer: 13 µM

Question: And the Ki [5]?
Answer: 7.4 µM

Question: What about the Kd [6] of the same compound?
Answer: 8 µM
